# According to PMC11191095, “QSAR Reveals Decreased Lipophilicity of Polar Residues Determines the Selectivity of Antimicrobial Peptide Activity” (ACS Omega, 2024):
# Where a SMILES comes first, the peptide text is derived from it.
# Key:
# [1] = tested on: E. coli LEC001; assay: microbe, parasite or virus in culture; format: cell-based, Escherichia coli; conditions: E. coli LEC001 (R); shown in µM
# In short: (§1)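 Peptides 128→2 μg/mL, 2-fold series; inoculum ~5 × 10^5 CFU/mL from overnight culture (OD600 0.01, mixed 1:1). MHB non-cation-adjusted for bacteria, RPMI 1640 + 2% glucose for fungi. 37 °C, 20 h, OD600. MIC50/MIC90 at 50%/90% inhibition; n ≥ 3.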
# [2] = tested on: E. coli NCTC 12923; assay: microbe, parasite or virus in culture; format: cell-based, Escherichia coli; conditions: E. coli NCTC 12923 (S); shown in µM
# In short: as §1
# [3] = tested on: P. aeruginosa NCTC 13437; assay: microbe, parasite or virus in culture; format: cell-based, Pseudomonas aeruginosa; conditions: P. aeruginosa NCTC 13437 (R); shown in µM
# In short: as §1
# [4] = tested on: P. aeruginosa PAO1; assay: microbe, parasite or virus in culture; format: cell-based, Pseudomonas aeruginosa; conditions: P. aeruginosa PAO1 (S)
# In short: as §1
# [5] = tested on: A. baumannii ATCC 17978; assay: microbe, parasite or virus in culture; format: cell-based, Acinetobacter baumannii; conditions: A. baumannii ATCC 17978 (S); shown in µM
# In short: as §1
# [6] = tested on: A. baumannii AYE; assay: microbe, parasite or virus in culture; format: cell-based, Acinetobacter baumannii; conditions: A. baumannii AYE (R); shown in µM
# In short: as §1
# [7] = tested on: K. pneumoniae M6; assay: microbe, parasite or virus in culture; format: cell-based, Klebsiella pneumoniae; conditions: K. pneumoniae M6 (S); shown in µM
# In short: as §1
# [8] = tested on: K. pneumoniae NCTC 13368; assay: microbe, parasite or virus in culture; format: cell-based, Klebsiella pneumoniae; conditions: K. pneumoniae NCTC 13368 (R); shown in µM
# In short: as §1
# [9] = tested on: S. aureus (MRSA) 1199B; assay: microbe, parasite or virus in culture; format: cell-based, Staphylococcus aureus; conditions: S. aureus (MRSA) 1199B (R); shown in µM
# In short: as §1
# [10] = tested on: S. aureus (MRSA) NCTC 13616; assay: microbe, parasite or virus in culture; format: cell-based, Staphylococcus aureus; conditions: S. aureus (MRSA) NCTC 13616 (R); shown in µM
# In short: as §1
# [11] = tested on: S. aureus (MRSA) USA300; assay: microbe, parasite or virus in culture; format: cell-based, Staphylococcus aureus; conditions: S. aureus (MRSA) USA300 (R); shown in µM
# In short: as §1
# [12] = tested on: S. aureus (MSSA) ATCC 9144; assay: microbe, parasite or virus in culture; format: cell-based, Staphylococcus aureus; conditions: S. aureus (MSSA) ATCC 9144 (S); shown in µM
# In short: as §1
# [13] = tested on: C. auris TDG 1912; assay: microbe, parasite or virus in culture; format: cell-based, Candida auris; conditions: C. auris TDG 1912
# In short: as §1
# [14] = tested on: C. albicans NCPF 3281; assay: microbe, parasite or virus in culture; format: cell-based; conditions: C. albicans NCPF 3281; shown in µM
# In short: as §1
# [15] = tested on: C. glabrata NCPF 8018; assay: microbe, parasite or virus in culture; format: cell-based; conditions: C. glabrata NCPF 8018
# In short: as §1
# [16] = tested on: C. krusei NCPF 3876; assay: microbe, parasite or virus in culture; format: cell-based; conditions: C. krusei NCPF 3876; shown in µM
# In short: as §1
# [17] = tested on: C. parapsilosis NCPF 3209; assay: microbe, parasite or virus in culture; format: cell-based; conditions: C. parapsilosis NCPF 3209; shown in µM
# In short: as §1
# [18] = tested on: C. tropicalis NCPF 8760; assay: microbe, parasite or virus in culture; format: cell-based; conditions: C. tropicalis NCPF 8760; shown in µM
# In short: as §1
# [19] = tested on: human erythrocytes; assay: In vitro hemolytic activity; format: cell-based; conditions: human erythrocytes in PBS, 1 h, 37 °C, OD550, from dose response curves
# Procedure: Potential erythrocyte hemolysis was tested by incubating serial dilutions of the AMPs in PBS with freshly collected erythrocytes at a ratio of 1:1 in 96-well polypropylene V-shape plates for 1 h at 37 °C. Control wells were treated with 0.1% Triton-X-100 to ensure complete lysis or PBS-only to represent no lysis. The erythrocytes were collected by centrifugation and the OD550 of the supernatant was measured using a plate reader. The percentage hemolysis was calculated as [drawing 1] 1 where Apeptide is the absorbance value of erythrocytes exposed to a known peptide concentration, Agrowth control is the absorbance of erythrocytes exposed to 0.1% Triton-X-100 and Ablank is the absorbance of erythrocytes exposed to the PBS. The concentrations at which a peptide caused 10% (HC10) and 50% (HC50) hemolysis was determined from the dose response curves.
# [20] = tested on: HaCat cell line; assay: In vitro HaCat cytotoxicity (MTT); format: cell-based, human; conditions: 21 h exposure, OD570, relative to untreated control
# Procedure: The HaCat cell line (Cellonex, South Africa) was cultured in Dulbecco’s Modified Eagle Medium (DMEM) supplemented with 10% heat-inactivated fetal calf serum (FCS) and 1% antibiotic-antimycotic (Abs) and maintained at 5–10% CO2, 37 °C, 95% humidity. For cytotoxicity screening, 5.56 × 10^4 cells/mL were plated in a 96-well plate. After 24 h incubation, the cells are initially exposed to each peptide at a concentration of 256 μg/mL or 0.1% Triton-X-100 as the control for 21 h. If cytotoxicity was observed, at a level of significance of p < 0.0001 compared with the untreated control after 21 h, a dose-response assay was undertaken. Cell viability was determined by adding 10% 3-(4,5-dimethyl-2-thiazolyl)-2,5-diphenyl-2H-tetrazolium bromide (MTT) (1 mg/mL), to each well and after a further 3 h incubation the media was discarded, and the formazan crystals dissolved by adding 25% DMSO in ethanol. The absorbance was measured at OD570 by using the FLUOstar Omega multidetection microplate reader (BMG Labtech). Percentage cell viability was calculated relative to the untreated control. The LC50 was defined as the concentration of AMP treatment that results in 50% lethality of HaCat cells and was determined from the dose-response curves.
# [21] = MHB, 37 °C, 20 h, OD600, min. three biological repeats
# [22] = 50% growth inhibition, RPMI 1640 + 2% glucose, 37 °C, 20 h, OD600
# [23] = 90% growth inhibition, RPMI 1640 + 2% glucose, 37 °C, 20 h, OD600
Structure (SMILES),Modal MIC [1] [µM],Modal MIC [2] [µM],Modal MIC [3] [µM],"Modal MIC [4, 21] [µg/mL]",Modal MIC ([4]; shown in µM) [µM],Modal MIC [5] [µM],Modal MIC [6] [µM],Modal MIC [7] [µM],Modal MIC [8] [µM],Modal MIC [9] [µM],Modal MIC [10] [µM],Modal MIC [11] [µM],Modal MIC [12] [µM],"Modal MIC50 [13, 22] [µg/mL]","Modal MIC90 [13, 23] [µg/mL]",Modal MIC50 ([13]; shown in µM) [µM],Modal MIC90 ([13]; shown in µM) [µM],Modal MIC50 [14] [µM],Modal MIC90 [14] [µM],Modal MIC50 ([15]; shown in µM) [µM],other results
CC[C@H](C)[C@H](NC(=O)[C@H](C)NC(=O)[C@H](CCCCN)NC(=O)[C@@H]1CCCN1C(=O)[C@@H](NC(=O)[C@H](CC(C)C)NC(=O)[C@H](CO)NC(=O)[C@H](Cc1ccccc1)NC(=O)[C@H](CC(C)C)NC(=O)[C@@H](N)Cc1ccccc1)[C@@H](C)CC)C(=O)NCC(=O)NCC(=O)N[C@@H](CC(C)C)C(=O)N[C@H](C(=O)N[C@@H](CO)C(=O)N[C@@H](C)C(=O)N[C@@H](Cc1ccccc1)C(=O)N[C@@H](CCCCN)C(N)=O)[C@@H](C)CC [AamAP-S1a],8.1,8.1,64.8,> 128,> 64.8,4.1,4.1,32.4,32.4,2,4.1,4.1,2,> 128,> 128,> 64.8,> 64.8,64.8,64.8,> 64.8,"Modal MIC50 ([15]; 50% growth inhibition, RPMI 1640 + 2% glucose, 37 °C, 20 h): > 128 µg/mL; Modal MIC90 ([15]; 90% growth inhibition, RPMI 1640 + 2% glucose, 37 °C, 20 h): > 128 µg/mL; Modal MIC90 ([15]; shown in µM): > 64.8 µM; Modal MIC50 [16]: 32.4 µM; Modal MIC90 [16]: 32.4 µM; Modal MIC50 [17]: 64.8 µM; Modal MIC90 [17]: 64.8 µM; Modal MIC50 [18]: 8.1 µM; Modal MIC90 [18]: 8.1 µM; HC10 (concentration causing 10% hemolysis) [19]: 45 µg/mL; HC50 (concentration causing 50% hemolysis) [19]: 112 µg/mL; HC50 (concentration causing 50% hemolysis) ([19]; listed as AamAP1-S1a): lower than 256 µg/mL; % HaCat cell death at initial screening (256μg/mL) ± SD [20]: 97.6 ±12.6%"
CC[C@H](C)[C@H](N)C(=O)N[C@@H](CC(C)C)C(=O)N[C@@H](CCCCN)C(=O)N[C@@H](CCCCN)C(=O)N[C@H](C(=O)N[C@@H](Cc1c[nH]c2ccccc12)C(=O)N[C@@H](CCC(=O)O)C(=O)NCC(=O)N[C@H](C(=O)N[C@@H](CCCCN)C(=O)N[C@@H](CO)C(=O)N[C@@H](CC(C)C)C(=O)N[C@@H](Cc1ccccc1)C(N)=O)[C@@H](C)CC)[C@@H](C)CC [K3-IsCTa] (H-ILKKIWEGIKSLF-NH2),5,5,39.8,> 128,> 79.5,2.5,5,9.9,9.9,5,5,9.9,5,> 128,> 128,> 79.5,> 79.5,19.9,39.8,39.8,Modal MIC90 ([15]; shown in µM): 39.8 µM; Modal MIC50 [16]: 9.9 µM; Modal MIC90 [16]: 19.9 µM; Modal MIC50 [17]: 39.8 µM; Modal MIC90 [17]: 39.8 µM; Modal MIC50 [18]: 2.5 µM; Modal MIC90 [18]: 5 µM; HC10 (concentration causing 10% hemolysis) [19]: 84 µg/mL; % HaCat cell death at initial screening (256μg/mL) ± SD [20]: 104.1 ± 11.9%
